Experimental data: patent US7045600B2, “Modification of collagenous materials and medical treatment, diagnosis and monitoring of fibrotic conditions” (Nederlandse Organisatie voor …, priority 1999, dated 2006)

Experiments:
[1] = test system: helical lysyl hydroxylase; details: cited from earlier work
PLOD2B mRNA [2] = assay: PLOD2B mRNA levels by real-time PCR in minoxidil-treated human skin fibroblasts and myofibroblasts; format: cell-based; details: 1 mM minoxidil, 41 hours, versus untreated (FIG. 8)
Procedure: To substantiate that minoxidil suppresses the expression of PLOD2, human skin fibroblasts and myofibroblasts were cultured in 25 cm^2 flasks in DMEM (Gibco) supplemented with 10% FBS in 5% CO2. At near confluency the fibroblasts and myofibroblasts were incubated for 41 hours in medium containing 1 mM minoxidil. Minoxidil was dissolved at room temperature in medium with 10% FBS for 8 hours which was filtered prior to use. As a control both cell types were incubated for 41 hours in medium without minoxidil. At the end of the incubation period, the cells were washed with PBS and lysed with 600 μl RLT-buffer (RNeasy kit, Qiagen). RNA was isolated following the manufacturers protocol and subsequently reverse transcribed into cDNA (first strand cDNA synthesis kit, Roche Molecular Biochemicals). The levels of PLOD2B mRNA in the untreated and minoxidil-treated cells were quantified using real-time PCR as described in example 8. […]
Real time PCR amplification of PLOD2 and β2-microglobulin was performed, using specific primers (PLOD2 forward primer: 5′ […] 3′ (SEQ ID NO:48) PLOD2 reverse primer: 5′ […] 3′ (SEQ ID NO:49)β2-microglobulin forward primer; 5′ […] 3 (SEQ ID NO:50)β32-microglobulin reverse primer 5′ […] 3′) (SEQ ID NO:51) and specific molecular beacons PLOD2: 5′ FAM-cgtgcg[…] […] Data was analysed using sequence detector V1.7 software.

[3] = test system: lysyl hydroxylation level of the telopeptides (pyridinoline cross-links) in chondrocytes; assay: Pyridinoline (HP and LP) cross-links in collagen from calf chondrocytes cultured in alginate beads with minoxidil; format: cell-based, calves; details: culture period of 20–50 days
Procedure: Chondrocytes from the metacarpophalangeal joint of calves (12–14 months old, local slaughterhouse) were isolated by collagenase digestion: cartilage slices were minced and digested overnight at 37° C. in 0.14% (w/v) collagenase (Worthington CLS2) in Dulbecco's modified Eagle's medium (DMEM). After filtration of the suspension, cells were washed suspended in 1.2% (w/v) alginate (Keltone LVCR) in 0.9% NaCI at a density of 4×10^6 cells/ml, which was passed dropwise through a 22-gauge needle into 102 mM CaCl2. After 10 min of polymerization, beads were washed in 0.9% (w/v) NaCl (three times) and finally in complete medium: DMEM-Glutamax (Gibco BRL) supplemented with 100 U/ml of penicillin/streptomycin, 10% (v/v) foetal calf serum and 50 μg/ml ascorbic acid. The cells were cultured at 10 beads per 0.5 ml medium in a humid atmosphere of 5% CO2 in air at 37° C.; the medium was refreshed twice weekly. Minoxidil was dissolved in complete medium and added to the culture after 7 days of preculture under control conditions. Harvested beads were washed with 0.9% NaCl containing 10 mM CaCl2 and hydrolyzed in 900 μl 6 M HCl at 108° C. for 20–24 h. […] Based on hydroxyproline levels, amounts of collagen were calculated, assuming 300 hydroxyproline residues/triple helix. […] Crosslinks were expressed as amount of residues per collagen molecule.

PLOD2B mRNA [4] = assay: PLOD2B mRNA levels by real-time PCR in TGF-β-treated human skin fibroblasts; format: cell-based; details: for increase of PLOD2B mRNA levels: human skin fibroblasts, 1, 5 or 10 nM, 50 hours, versus untreated (FIG. 9)
Procedure: Human skin fibroblasts were cultured in 25 cm^2 flasks in DMEM (Gibco) supplemented with 10% FBS in 5% CO2. At near confluency the fibroblasts and myofibroblasts were incubated for 50 hours in medium containing 1, 5 or 10 nM human recombinant TGF-β1, -β2 or -β3. As a control, human skin fibroblasts were incubated for 50 hours in medium without the addition of TGF-β. At the end of the incubation period, the cells were washed with PBS and lysed with 600 μl RLT-buffer (RNeasy kit, Qiagen). RNA was isolated following the manufacturers protocol and subsequently reverse transcribed into cDNA (first strand cDNA synthesis kit, Roche Molecular Biochemicals). The levels of PLOD2B mRNA in the untreated and TGF-β treated cells were quantified using real-time PCR as described in example 8.
RNA, obtained from cultured human skin fibroblasts and cultured human myofibroblast, was isolated using the RNeasy kit (Qiagen). To remove any genomic DNA in the RNA sample, a Dnase treatment was carried out, using RQ1 Rnase-free Dnase (Promega). RNA was then reverse transcripted into cDNA and subjected to real time PCR amplification.
Real time PCR amplification of PLOD2 and β2-microglobulin was performed, using specific primers (PLOD2 forward primer: 5′ […] 3′ (SEQ ID NO:48) PLOD2 reverse primer: 5′ […] 3′ (SEQ ID NO:49)β2-microglobulin forward primer; 5′ […] 3 (SEQ ID NO:50)β32-microglobulin reverse primer 5′ […] 3′) (SEQ ID NO:51) and specific molecular beacons PLOD2: 5′ FAM-cgtgcg[…] (SEQ ID NO:52) cgcacg-DABCYL 3 ′; β2-microglobulin: 5′HEX-cgtgc[…] (SEQ ID NO:53) gcacg-DABCYL 3′). PLOD2 was amplified in a multiplex PCR together with β2-microglobulin in a total reaction volume of 25μl, containing 1×PCR buffer (Applied Biosystems), 0.4 mM of each dNTP, 3.5 mM Mg^2+, 250 nM of each target primer, 100 nM of each primer for μ2microglobulin and 1 unit Amplitaq Gold polymerase (Applied Biosystems). PCR was performed in a ABI PRISM® 7700 Sequence Detection System and consisted of a 5 minute interval at 95° C., followed by 40 cycles of 95° C. for 30 seconds, 56° C. for 40 seconds and 72° C. for 30 seconds. Data was analysed using sequence detector V1.7 software.

For `CCOC(=O)CC(SP(=O)(OC)OC)C(=O)OCC` (stereo not shown) [malaoxon], the “helical lysyl hydroxylase inhibition” value [1] is listed as “inhibit”.

For `CCOC(=O)CC(SP(=S)(OC)OC)C(=O)OCC` (stereo not shown) [malathion], the “helical lysyl hydroxylase inhibition” value [1] is given as “inhibit”.

For `Nc1cc(N2CCCCC2)nc(N)[n+]1[O-]` [minoxidil], the “reduction of PLOD2B mRNA levels” value (PLOD2B mRNA [2]; human myofibroblasts) was “about 15 fold”, the “reduction of PLOD2B mRNA levels” value (PLOD2B mRNA [2]; human skin fibroblasts) was 4 fold and the “amount of pyridinolines (HP and LP), mean” value ([3]; alginate beads cultured with 0.3 mM minoxidil) was 0.38 residues/collagen molecule. For the same molecule, the “amount of pyridinolines (HP and LP), mean” value ([3]; alginate beads cultured with 1.0 mM or 2.0 mM minoxidil) was “around 0.15 residues/collagen molecule”.

In the case of TGF-β, the “expression of PLOD2B (FIG. 9 legend, in words)” value (PLOD2B mRNA [4]; fibroblasts, TGF-β added to the culture medium) is reported as “increased”.

In the case of TGF-β1: human recombinant TGF-β1, the “increase of PLOD2B mRNA levels” value (PLOD2B mRNA [4]) is reported as “about 20 fold”.

B1: TGF-β2: human recombinant TGF-β2 (protein, UniProt P61812 303-414, looked up)
Transforming growth factor …: ALDAAYCFRNVQDNCCLRPLYIDFKRDLGWKWIHEPKGYNANFCAGACPYLWSSDTQHSRVLSLYNTINPEASASPCCVSQDLEPLTILYYIGKTPKIEQLSNMIVKSCKCS
With B1 the “increase of PLOD2B mRNA levels” value (PLOD2B mRNA [4]) was “about 20 fold”.

B2: TGF-β3: human recombinant TGF-β3 (protein, UniProt P10600 301-412, looked up)
Transforming growth factor …: ALDTNYCFRNLEENCCVRPLYIDFRQDLGWKWVHEPKGYYANFCSGPCPYLRSADTTHSTVLGLYNTLNPEASASPCCVPQDLEPLTILYYVGRTPKVEQLSNMVVKSCKCS
With B2 the “increase of PLOD2B mRNA levels” value (PLOD2B mRNA [4]) was “about 20 fold”.
